For 36 compounds, IC50 results are on record in BindingDB's records for doi:10.1016/j.bmcl.2011.09.060 (Second Military Medical University, 2011).

In general, IC50 refers to the concentration at which inhibition is half-maximal.

The structures appear in SMILES notation.

The target of the assay is Acrosin (Homo sapiens, UniProt P10323). Kind of assay: Inhibition of acrosin activity in human spermatozoa using N-alpha-benzoyl-DL-arginine para-nitroanilide-HCI as a substrate after 3 hrs by spectrophotometric analysis.
Sequence of Acrosin (P10323 20-42 limits assumed): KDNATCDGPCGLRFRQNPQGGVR
Sequence of Acrosin (P10323 43-343 limits assumed): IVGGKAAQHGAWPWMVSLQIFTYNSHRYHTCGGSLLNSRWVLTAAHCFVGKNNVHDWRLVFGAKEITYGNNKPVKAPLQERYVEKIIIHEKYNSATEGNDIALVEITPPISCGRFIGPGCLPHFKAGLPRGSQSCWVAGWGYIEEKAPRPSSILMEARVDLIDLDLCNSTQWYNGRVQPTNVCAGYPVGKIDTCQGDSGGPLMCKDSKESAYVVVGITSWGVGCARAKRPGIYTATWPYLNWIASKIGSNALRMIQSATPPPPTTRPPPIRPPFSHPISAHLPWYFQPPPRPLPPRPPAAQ
With `NC(N)=NS(=O)(=O)c1ccc(NC(=O)c2c(Cl)cccc2Cl)cc1`, 5.96 mM corresponded to half-maximal inhibition (IC50). The figure for `CC1CCN(CC(=O)Nc2ccc(S(=O)(=O)NC(=N)N)cc2)CC1` is 4.98 mM; for `CC(C)CCOC(=O)C1CCN(CC(=O)Nc2ccc(S(=O)(=O)NC(=N)N)cc2)CC1` it is 2.51 mM. `N=C(N)NS(=O)(=O)c1ccc(NC(=O)COc2ccc(Cl)cc2)cc1` returned an IC50 of 9.35 mM. Next, `CCCC(=O)Nc1ccc(S(=O)(=O)NC(=N)N)cc1`: 9.58 mM. The figure for `Cc1cccc(OCC(=O)Nc2ccc(S(=O)(=O)N=C(N)N)cc2)c1` is 8.92 mM; for `N=C(N)NS(=O)(=O)c1ccc(NC(=O)c2ccc(F)cc2)cc1` it is 7.11 mM; for `Cc1cc(C)c(C(=O)Nc2ccc(S(=O)(=O)NC(=N)N)cc2)c(C)c1` it is 2.45 mM. As for `Cc1ccccc1OCC(=O)Nc1ccc(S(=O)(=O)NC(=N)N)cc1`, the IC50 was 9.3 mM. Next, `CCOc1ccc(C(=O)Nc2ccc(S(=O)(=O)NC(=N)N)cc2)cc1`: 0.13 mM; `N=C(N)NS(=O)(=O)c1ccc(NC(=O)c2ccc(Cl)cc2Cl)cc1`: 5.63 mM; `CCCCC(=O)Nc1ccc(S(=O)(=O)NC(=N)N)cc1`: 1.58 mM. As to `N=C(N)NS(=O)(=O)c1ccc(NC(=O)c2cccc(Cl)c2)cc1`, the IC50 was determined as 7 mM. In turn, `N=C(N)NS(=O)(=O)c1ccc(NC(=O)c2ccccc2Cl)cc1` came in with a 50% inhibitory concentration (IC50) of 6.3 mM. Next, `CCCOC(=O)C1CCN(CC(=O)Nc2ccc(S(=O)(=O)N=C(N)N)cc2)CC1`: 3.31 mM; `N=C(N)NS(=O)(=O)c1ccc(NC(=O)c2cccc(C(F)(F)F)c2)cc1`: 7.05 mM; `CC1CCCCN1CC(=O)Nc1ccc(S(=O)(=O)N=C(N)N)cc1` (stereo unspecified): 9.9 mM.

Compound `N=C(N)NS(=O)(=O)c1ccc(NC(=O)c2c(F)cccc2F)cc1` showed a half-inhibitory concentration (IC50) of 7.18 mM. Next, `CCOC(=O)C1CCN(CC(=O)Nc2ccc(S(=O)(=O)N=C(N)N)cc2)CC1`: 2.99 mM.

With `COC(=O)C1CCN(CC(=O)Nc2ccc(S(=O)(=O)NC(=N)N)cc2)CC1`, the IC50 turned out to be 9.3 mM. `NC(N)=NS(=O)(=O)c1ccc(NC(=O)c2cc([N+](=O)[O-])cc([N+](=O)[O-])c2)cc1` came in with an IC50 of 2.5 mM.

The compound `N=C(N)NS(=O)(=O)c1ccc(NC(=O)COc2ccc([N+](=O)[O-])cc2)cc1` came in with an IC50 of 4.2 mM. In turn, `N=C(N)NS(=O)(=O)c1ccc(NC(=O)c2ccc(CCl)cc2)cc1` yielded an IC50 of 3.84 mM. In turn, `Cc1ccc(C(=O)Nc2ccc(S(=O)(=O)NC(=N)N)cc2)cc1` showed a half-inhibitory concentration (IC50) of 2.06 mM.

Compound `NC(N)=NS(=O)(=O)c1ccc(NC(=O)c2ccc(Cl)c(Cl)c2)cc1` displayed a 50% inhibitory concentration (IC50) of 3.8 mM. For `COc1ccc(C(=O)Nc2ccc(S(=O)(=O)NC(=N)N)cc2)cc1`, half-maximal inhibition (IC50) required 2.21 mM. On to `CCc1ccc(C(=O)Nc2ccc(S(=O)(=O)N=C(N)N)cc2)cc1`, for which the IC50 came out at 0.21 mM. The figure for `COc1ccc(OCC(=O)Nc2ccc(S(=O)(=O)N=C(N)N)cc2)cc1` is 9.84 mM; for `CCCCOC(=O)C1CCN(CC(=O)Nc2ccc(S(=O)(=O)NC(=N)N)cc2)CC1` it is 9.5 mM; for `N=C(N)NS(=O)(=O)c1ccc(NC(=O)COc2ccccc2)cc1` it is 2.3 mM. Take `NC(N)=NS(=O)(=O)c1ccc(NC(=O)CN2CCCCC2)cc1`: the half-maximal inhibitory concentration (IC50) turned out to be 7.41 mM. Next, `COC(=O)c1ccc(OC(=O)c2ccc(NC(=N)N)cc2)cc1`: 0.027 mM. Next, `Cc1ccc(OCC(=O)Nc2ccc(S(=O)(=O)N=C(N)N)cc2)cc1`: 8.98 mM; `CCC(=O)Nc1ccc(S(=O)(=O)N=C(N)N)cc1`: 9 mM.

Compound `N=C(N)NS(=O)(=O)c1ccc(NC(=O)c2ccccc2Br)cc1` returned an IC50 of 7.63 mM. The figure for `CC(C)OC(=O)C1CCN(CC(=O)Nc2ccc(S(=O)(=O)NC(=N)N)cc2)CC1` is 2.35 mM.
